# Active and inactive are the calls of the source. The rule behind the calls is not given here.
# Legend:
# NCI-H460 [1] = experiment: Antiproliferative activity against human NCI-H460 cells after 72 hrs by CellTiter96 AQueous nonradioactive cell proliferation assay; format: functional, cell-based; details: NCI-H460, 72 h
# PC-3 = experiment: Antiproliferative activity against human PC3 cells after 72 hrs by CellTiter96 AQueous nonradioactive cell proliferation assay; format: functional, cell-based; details: PC-3, 72 h
# SF-295 = experiment: Antiproliferative activity against human SF295 cells after 72 hrs by CellTiter96 AQueous nonradioactive cell proliferation assay; format: functional, cell-based; details: SF-295, 72 h
# ACHN = experiment: Antiproliferative activity against human ACHN cells after 72 hrs by CellTiter96 AQueous nonradioactive cell proliferation assay; format: functional, cell-based
# M14 = experiment: Antiproliferative activity against human M14 cells after 72 hrs by CellTiter96 AQueous nonradioactive cell proliferation assay; format: functional, cell-based; details: M14, 72 h
# A-375 = experiment: Antiproliferative activity against human A375 cells after 72 hrs by CellTiter96 AQueous nonradioactive cell proliferation assay; format: functional, cell-based; details: A-375, 72 h
# UACC-62 = experiment: Antiproliferative activity against human UACC62 cells after 72 hrs by CellTiter96 AQueous nonradioactive cell proliferation assay; format: functional, cell-based; details: UACC-62, 72 h
# SK-MEL-2 = experiment: Antiproliferative activity against human SK-MEL-2 cells after 72 hrs by CellTiter96 AQueous nonradioactive cell proliferation assay; format: functional, cell-based; details: SK-MEL-2, 72 h
# RAW264.7 = experiment: Antiproliferative activity against mouse RAW264.7 cells after 18 hrs by CellTiter96 AQueous nonradioactive cell proliferation assay; format: cell-based; details: RAW264.7, 18 h
# NCI/ADR-RES = experiment: Antiproliferative activity against human NCI-ADR-RES cells after 48 hrs by SRB assay; format: functional, cell-based
# NCI-H460 [2] = experiment: Induction of apoptosis in human NCI-H460 cells upto 100 uM assessed as increase in caspase3/7 activity after 24 hrs by Caspase-Glo 3/7 assay relative to control; format: functional
# NCI-H460 [3] = experiment: Induction of necrosis in human NCI-H460 cells upto 100 uM assessed as increase in LDH levels after 24 hrs by CytoTox 96 nonradioactive cytotoxicity assay; format: functional, cell-based
# Sus scrofa [4] = species on record: Sus scrofa; experiment: Inhibition of pig brain tubulin polymerization measured every 1 min for 60 mins
# HCC 2998 = experiment: Antiproliferative activity against human HCC2998 cells after 48 hrs by SRB assay; format: functional, cell-based; details: HCC 2998, 48 h
# SR = experiment: Antiproliferative activity against human SR cells after 48 hrs by SRB assay; format: functional, cell-based
# Malme-3M = experiment: Antiproliferative activity against human MALME-3M cells after 48 hrs by SRB assay; format: functional, cell-based
# MDA-MB-435 = experiment: Antiproliferative activity against human MDA-MB-435 cells after SRB assay; format: functional, cell-based
# Sus scrofa [5] = species on record: Sus scrofa; experiment: Displacement of colchicine from colchicine-binding site of pig brain tubulin up to 100 uM by LC-MS analysis
# Sus scrofa [6] = species on record: Sus scrofa; experiment: Displacement of vincristine from vinca alkaloid binding site of pig brain tubulin up to 100 uM by LC-MS analysis
# NCI-H460 [7] = experiment: Cell cycle arrest in human NCI-H460 cells assessed as accumulation at G2/M phase at 1.5 uM measured after 6 to 24 hrs in the presence of RNase A by propidium iodide staining-based flow cytometry analysis; format: functional
# [8] = Antiproliferative activity against human NCI60 cells after 48 hrs by SRB assay; format: functional, cell-based; details: NCI60, 48 h
Structure (SMILES),IC50 (NCI-H460 [1]),IC50 (PC-3),IC50 (SF-295),IC50 (ACHN),IC50 (M14),IC50 (A-375),IC50 (UACC-62),IC50 (SK-MEL-2),IC50 (RAW264.7),IC50 (NCI/ADR-RES),further results
CC(=O)O[C@H]1C(=O)[C@@]2(C)[C@H]([C@H](OC(=O)c3ccccc3)[C@]3(O)C[C@H](OC(=O)[C@H](O)[C@@H](NC(=O)c4ccccc4)c4ccccc4)C(C)=C1C3(C)C)[C@]1(OC(C)=O)CO[C@@H]1C[C@@H]2O [PACLITAXEL],10 nM,4 nM,56 nM,66 nM,7 nM,10 nM,6 nM,9 nM,> 5000 nM,> 10000 nM,
C=CC[C@H]1C[C@]2([C@@H](C)Cc3ccc(OC)c(OC)c3)OCOC2=CC1=O,260 nM,490 nM,250 nM,360 nM,64 nM,75 nM,44 nM,95 nM,> 5000 nM,170 nM,fold change (FC) (NCI-H460 [2]): 2.5; Activity (NCI-H460 [3]): Active; inhibition (Sus scrofa [4]): Dose-dependent effect; IC50 (HCC 2998): 1410 nM; IC50 (SR): < 100 nM; IC50 (Malme-3M): < 100 nM; IC50 (MDA-MB-435): < 100 nM; inhibition (Sus scrofa [5]): Active; inhibition (Sus scrofa [6]): inactive; Activity (NCI-H460 [7]): Active; IC50 [8]: 270 nM

# — ChEMBL document CHEMBL4052612, “Isolation and Identification of the Novel Tubulin Polymerization Inhibitor Bifidenone” (J Nat Prod, 2017)
